From PubChem BioAssay (NCI)
“And” between values parts separate entries of the source, which are not always exact repeats. Equal entries are not always repeated.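 Grown in 96-well plates, cells were treated for 48 hours with each compound at five concentrations. Insufficient inhibition: endpoint recorded as highest concentration tested. GI50 = concentration required for 50% inhibition of growth. Definition used: TGI = concentration required for complete inhibition of growth.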

Tests used:
Experiment in all cases: NCI anticancer screen, dose series, 48 h
[1] = tested on: HS 578T breast
[2] = tested on: DLD-1 colon
[3] = tested on: LXFL 529 NSCLC
[4] = tested on: DMS 114 small cell lung
[5] = tested on: XF 498 CNS
[6] = tested on: DMS 273 small cell lung
[7] = tested on: SNB-78 CNS
[8] = tested on: RXF-631 renal
[9] = tested on: MDA-N

SMILES | GI50 [1] [µM] | TGI [1] [µM] | TGI [2] [µM] | TGI [3] | TGI [4] [µM] | TGI [6] | TGI [7] | other results
C=C1C(=O)O[C@H]2[C@H](OC(C)=O)[C@@H](C)CCC/C(C)=C/CC[C@]3(CO3)[C@H](O)C[C@@H]12 | 14.4 | 35.3 |  |  |  |  |  | 
CCn1c(-c2cc3ccccc3cc2OC(=O)c2ccccc2)n[nH]c1=S | 11.6 | 44.8 |  |  |  |  |  | 
CCn1cc(C2NC(=O)c3cc(F)ccc3N2)c2cccc(Cl)c21 (centres undefined) | 0.197 | > 23.1 |  |  |  |  |  | 
COCCn1cc(-c2csc(-c3c[nH]c4ccc(F)cc34)n2)c2cccnc21 | 8.82 | > 100 |  |  |  |  |  | 
N#CC(C#N)=C/C=C/c1cccc([N+](=O)[O-])c1 | 0.325 | 2.75 |  |  |  |  |  | 
COc1ccccc1OCC(O)CO (centres undefined) | > 100 | > 100 |  |  |  |  |  | 
Cc1ccc(NC(=O)CCC(=O)C(C#N)c2ccc(Cl)cc2)cc1C (centres undefined) |  |  | > 100 | > 100 µM | > 100 | > 100 µM | > 100 µM | TGI [5]: > 100 µM
S=C1OC2C3C4CC5C3C(O1)C1C5C4C21 (centres undefined) |  |  | > 100 | > 100 µM | > 100 | > 100 µM | > 100 µM | 
C/C(=N\N=C(N)N)c1sc(-c2nc(C)c(/C(C)=N/N=C(N)N)s2)nc1C |  |  | > 100 | > 100 µM |  | > 100 µM | > 100 µM | TGI [5]: > 100 µM
CN1C=CN(Cc2ccc(-c3ccccn3)nc2)[CH-]1.CN1C=CN(Cc2ccc(-c3ccccn3)nc2)[CH-]1.[Au+3] | > 40.6 | > 100 |  |  |  |  |  | 
Cc1cc(C(=O)NCCN(C)C)c2nc3ccccc3nc2c1 |  |  | 48.9 | > 46.3 µM | 14.4 | > 100 µM | 47.2 µM | 
O=C1C=Cc2noc3cccc1c23 |  |  | 3.13 | 4.9 µM | 4.99 | 20.4 µM | 12 µM | TGI [8]: 27.9 µM
ClCc1ccc(Cn2cnc3ncnc(Cl)c32)cc1 | 1.74 | 4.3 |  |  |  |  |  | 
C(=C1/CCCCC([n+]2ccccc2)=N1)/c1ccccc1 |  |  | > 100 | > 100 µM | > 100 | > 100 µM | > 100 µM | 
Cc1ccc(S(=O)(=O)ON=C2CC(c3ccccc3)N(C)C(c3ccccc3)C2)cc1 (centres undefined) |  |  |  | 33.3 µM and 40.3 µM | 29.9 | 41.4 µM and 56.8 µM | 64.7 µM and 52.8 µM | 
C1CCN2CC34CC(CC5CCCN(C6CCCC3N6)C54)C2C1 (centres undefined) |  | > 100 |  |  |  |  |  | TGI [9]: > 100 µM
Clc1ccc(CCN2CCOCC2)c(Cl)c1 |  |  | > 100 |  | > 100 |  | > 100 µM | TGI [8]: > 100 µM; TGI [5]: > 100 µM
CCCCCCCCSC(SCCCCCCCC)=C1C(=O)N(c2ccccc2)N=C1C |  |  | 50 | > 100 µM | 63.3 | > 100 µM | > 100 µM | TGI [8]: > 100 µM
CCc1ccc(/C=C2/SC(=S)NC2=O)cc1 | 16.3 | 70.6 |  |  |  |  |  | 

SMILES | GI50 [1] [µM] | TGI [1] [µM] | TGI [2] [µM] | TGI [3] | TGI [4] [µM] | TGI [6] | TGI [7] | other results
Cc1nc(Nc2ccc([N+](=O)[O-])cc2)sc1C(=O)/C=C/c1ccc(N(C)C)cc1 |  |  | > 100 |  | > 100 | > 100 µM |  | TGI [8]: > 100 µM
Clc1cccc(C2SCc3nc4ccccc4n32)c1Cl (centres undefined) |  |  | 32.4 | 30.3 µM | 36.4 | 32.1 µM | 55.6 µM | TGI [5]: 29.9 µM
COCCOCCOCCOCCOc1ccc2c(c1)C(=O)c1nc3ncccc3c(=O)n1-2 | 1.09 | 4.02 |  |  |  |  |  | 
COc1cc(C(=O)c2c(-c3ccccc3)oc3ccccc23)cc(OC)c1O | 0.898 | 8.47 |  |  |  |  |  | 
O=[N+]([O-])C(=C(c1ccccc1)c1ccccc1)[N+](=O)[O-] |  |  | 19.8 | 29.2 µM | 43.2 | 22.5 µM |  | 
Cc1ccc(C)c2sc3cc(=O)ccc-3nc12 |  |  | > 100 | > 100 µM | > 100 | > 100 µM | > 100 µM | TGI [8]: > 100 µM
O=C(Nc1ccc(-c2nc3ccc(NC(=O)c4ccc(Cl)cc4)cc3[nH]2)cc1)c1ccc(Cl)cc1 | 0.0559 | 7.9 |  |  |  |  |  | 
Cn1cc(/C=C2\C(=O)Nc3cccnc32)c2ccccc21 | 8.58 | > 25 |  |  |  |  |  | 
CC(C)(C)c1ccc(C(O)(c2ccc(C(C)(C)C)cc2)c2ccc(C(C)(C)C)cc2)cc1 |  | > 100 |  |  |  |  |  | TGI [9]: > 100 µM
C=C1C(=O)C23C(CC(OC(C)=O)C1[C@@H]2OC(C)=O)C1(C)C(OC(C)=O)CCC(C)(C)C1C[C@@H]3OC(C)=O (some centres undefined) |  |  |  | 2.63 µM | 2.4 | 3.07 µM | 3.14 µM | 
O=C(O)C(O)C(O)C1[O][Sb][O]C1CO (centres undefined) | > 100 | > 100 | > 100 | > 100 µM | 98.3 | > 100 µM | > 100 µM | GI50 [2]: > 100 µM; GI50 [9]: > 100 µM; TGI [9]: > 100 µM; GI50 [3]: > 89.2 µM; GI50 [4]: > 43 µM; GI50 [5]: > 100 µM; TGI [5]: > 100 µM; GI50 [6]: > 100 µM; GI50 [7]: > 81.3 µM
CC12CC(=O)NN=C1c1ccccc1C2 (centres undefined) |  |  | > 100 |  | > 100 | > 100 µM | > 100 µM | TGI [5]: > 100 µM
C[P+](C)(CC(F)(F)F)c1ccccc1 |  |  | > 100 | > 100 µM | > 100 | > 100 µM | > 100 µM | 
COc1ccc(/C=C/CO)cc1OC |  |  |  | > 100 µM | > 100 | > 100 µM | > 100 µM | 
Cc1cc(C#Cc2ccccc2)ccc1-n1c(/C=C/c2ccc(O)cc2)nc2ccccc2c1=O | 2.48 | 49.5 |  |  |  |  |  | 
Cc1cc(Br)cc(C)c1NC(=O)C(=O)C(C(=O)c1ccc(Cl)c(Cl)c1)C1OC(=O)c2ccccc21 (centres undefined) |  |  | 51.2 | > 100 µM | > 100 | > 100 µM | > 100 µM | TGI [8]: > 100 µM
Fc1ccc(-c2c(-c3ccncc3)n(CCN3CCOCC3)c3cccnc23)cc1 | > 25 | > 25 |  |  |  |  |  | 
COc1ccc2c3c([nH]c2c1)[C@H]1C[C@H]2[C@H](C[C@@H](O)[C@H](OC)[C@H]2C(=O)O)CN1CC3 |  | > 100 |  |  |  |  |  | TGI [9]: > 100 µM
Cc1[nH]nc(C(=O)N/N=C/c2cccs2)c1N=NN(C)C |  | > 100 |  |  |  |  |  | 
